Activity calls are given as the source filed them. No rule for the calls is given here.

The subject of this test is Galpha16-expressing cells, calcium fluorescence, counterscreen. Description: nonselective Ga16 antagonists, potency, late-stage follow-up, counter-screen for TAAR1 antagonist project, cell-based, fluorescence, dose response (AID 743237). For orientation: The purpose of a counterscreen is to sort out artefacts and off-target activity.
For orientation: IC50 means the concentration that inhibits the measured activity by half. Turning to `Cc1cccc(C(C#N)c2nc3ccccc3nc2C(F)(F)F)c1` (centres undefined), the IC50 was > 29.9 µM (inactive).

With `Cc1coc(NC(=O)CSc2nc(-c3ccc(Cl)cc3)cc(C(F)(F)F)c2C#N)n1`, the IC50 is > 29.9 µM (inactive).

On to `O=C(NCCn1cc(SCc2ccccc2F)c2ccccc21)c1c(F)cccc1F`, for which the IC50 is > 29.9 µM (inactive).

On to `CC(=O)c1ccc(NC(=O)c2ccc(COc3ccccc3[N+](=O)[O-])o2)cc1`, for which the IC50 is > 29.9 µM (inactive).

With `Cc1ccc(CSCC(=O)Nc2cc(S(=O)(=O)N3CCOCC3)ccc2OCC(F)(F)F)cc1`, the IC50 was > 29.9 µM (inactive).

As for `COc1cccc(-c2nn(-c3ccccc3)cc2C(=O)Nc2nccs2)c1`, the IC50 is > 29.9 µM (inactive).

On to `CCCCC(=O)Nc1ccc(C(=O)Nc2ccc(S(=O)(=O)N3CCCC3)cc2)cc1`, for which the IC50 was > 29.9 µM (inactive).

Take `COc1cc(NC(=O)c2cc3ccccc3o2)c(OC)cc1Cl`: the IC50 is > 29.9 µM (inactive).

Consider `CCOC(=O)C1CCCN(c2c(C(=O)c3ccccc3)cnc3ccc(OC)cc23)C1` (centres undefined), for which the IC50 was > 29.9 µM (inactive).
